Test results reported in ChEMBL document CHEMBL5465560, “Selectivity Literature for EUbOPEN Chemogenomic Library” (2024).

Experiments:
[1] = molecular target: Mitogen-activated protein kinase kinase kinase 11 (Homo sapiens) (UniProt Q16584); assay: Selectivity interaction (KinomeScan (DiscoverX)) EUB0001049a MAP3K11; conditions: at 1 µM
[2] = molecular target: RAC-alpha serine/threonine-protein kinase (Homo sapiens, UniProt P31749); conditions: at 10 µM
[3] = molecular target: Casein kinase I isoform gamma-1 (Homo sapiens) (UniProt Q9HCP0); conditions: at 10 µM
Sequence of Casein kinase I isoform gamma-1 (Homo sapiens) (Q9HCP0 whole entry, looked up, canonical isoform): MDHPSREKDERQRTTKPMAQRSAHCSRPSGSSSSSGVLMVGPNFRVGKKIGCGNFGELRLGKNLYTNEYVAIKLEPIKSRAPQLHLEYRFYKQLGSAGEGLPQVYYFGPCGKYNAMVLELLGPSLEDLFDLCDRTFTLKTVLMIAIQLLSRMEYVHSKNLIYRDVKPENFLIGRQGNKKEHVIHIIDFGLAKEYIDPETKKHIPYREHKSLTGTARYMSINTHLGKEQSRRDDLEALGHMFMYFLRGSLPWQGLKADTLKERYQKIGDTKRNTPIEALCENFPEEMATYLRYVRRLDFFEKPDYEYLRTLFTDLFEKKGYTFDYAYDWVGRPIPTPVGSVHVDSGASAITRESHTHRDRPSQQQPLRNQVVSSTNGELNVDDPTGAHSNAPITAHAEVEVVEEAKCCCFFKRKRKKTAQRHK

[4] = molecular target: MAP/microtubule affinity-regulating kinase 3 (Homo sapiens) (UniProt P27448); assay: Selectivity interaction (ActivX KiNativ screen (kinase selectivity in THP-1 cell lysates)) EUB0000639a MARK3; type: subcellular; conditions: lysate, at 0.04 µM
Sequence of MAP/microtubule affinity-regulating kinase 3 (Homo sapiens) (P27448 whole entry, looked up, canonical isoform): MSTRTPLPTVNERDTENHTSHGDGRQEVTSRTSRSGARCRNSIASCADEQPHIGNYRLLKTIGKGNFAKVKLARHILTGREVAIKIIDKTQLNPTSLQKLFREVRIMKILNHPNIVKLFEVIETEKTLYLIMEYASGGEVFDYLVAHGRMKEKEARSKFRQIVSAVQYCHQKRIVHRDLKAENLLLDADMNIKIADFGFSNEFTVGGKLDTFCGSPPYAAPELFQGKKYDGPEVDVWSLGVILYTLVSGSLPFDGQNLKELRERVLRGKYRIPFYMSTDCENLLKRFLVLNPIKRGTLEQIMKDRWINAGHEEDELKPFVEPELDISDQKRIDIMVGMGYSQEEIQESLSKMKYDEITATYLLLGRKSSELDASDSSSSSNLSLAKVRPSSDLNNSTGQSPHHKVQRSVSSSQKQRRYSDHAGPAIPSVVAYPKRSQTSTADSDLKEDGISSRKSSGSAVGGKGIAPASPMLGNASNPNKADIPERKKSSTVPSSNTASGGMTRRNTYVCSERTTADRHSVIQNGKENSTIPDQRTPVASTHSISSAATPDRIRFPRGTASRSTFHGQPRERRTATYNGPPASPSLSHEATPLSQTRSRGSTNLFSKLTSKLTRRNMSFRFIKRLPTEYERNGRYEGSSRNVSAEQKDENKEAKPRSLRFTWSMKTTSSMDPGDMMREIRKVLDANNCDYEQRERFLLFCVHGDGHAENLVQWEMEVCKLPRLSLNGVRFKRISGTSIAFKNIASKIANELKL

[5] = molecular target: Casein kinase I isoform gamma-2 (Homo sapiens) (UniProt P78368); assay: Selectivity interaction (ActivX KiNativ screen (kinase selectivity in THP-1 cell lysates)) EUB0000639a CSNK1G2; type: subcellular; conditions: lysate
Sequence of Casein kinase I isoform gamma-2 (Homo sapiens) (P78368 whole entry, looked up, canonical isoform): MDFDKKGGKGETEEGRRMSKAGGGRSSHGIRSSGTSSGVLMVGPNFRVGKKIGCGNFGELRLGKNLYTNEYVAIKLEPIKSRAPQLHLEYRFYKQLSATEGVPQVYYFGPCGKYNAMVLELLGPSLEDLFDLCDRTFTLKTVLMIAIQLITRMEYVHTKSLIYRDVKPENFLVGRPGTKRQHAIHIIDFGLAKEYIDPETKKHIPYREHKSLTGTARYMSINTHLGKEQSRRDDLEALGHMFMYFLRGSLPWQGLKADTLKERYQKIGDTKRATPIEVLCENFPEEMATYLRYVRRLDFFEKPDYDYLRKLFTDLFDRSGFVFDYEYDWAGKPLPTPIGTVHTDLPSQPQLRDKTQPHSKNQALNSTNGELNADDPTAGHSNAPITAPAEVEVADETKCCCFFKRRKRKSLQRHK

[6] = molecular target: T1, Scaffold protein ILK (Homo sapiens) (UniProt Q13418); assay: Selectivity interaction (ActivX KiNativ screen (kinase selectivity in THP-1 cell lysates)) EUB0000639a ILK; type: subcellular; conditions: lysate, at 0.04 µM
T1 sequence (whole entry): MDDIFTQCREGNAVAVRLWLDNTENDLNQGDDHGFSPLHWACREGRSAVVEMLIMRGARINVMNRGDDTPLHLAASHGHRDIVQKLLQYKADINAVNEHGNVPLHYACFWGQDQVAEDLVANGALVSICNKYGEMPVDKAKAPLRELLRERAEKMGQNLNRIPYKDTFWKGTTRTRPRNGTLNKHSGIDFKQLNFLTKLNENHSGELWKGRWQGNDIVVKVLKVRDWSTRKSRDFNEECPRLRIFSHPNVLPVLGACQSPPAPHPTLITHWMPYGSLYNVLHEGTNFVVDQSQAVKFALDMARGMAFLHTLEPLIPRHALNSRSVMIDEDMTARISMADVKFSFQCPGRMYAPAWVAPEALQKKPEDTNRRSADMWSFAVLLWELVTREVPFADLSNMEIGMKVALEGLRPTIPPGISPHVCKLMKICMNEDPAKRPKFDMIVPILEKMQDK

[7] = molecular target: T2, Serine/threonine-protein kinase BRSK1 (Homo sapiens) (UniProt Q8TDC3); assay: Selectivity interaction (KinomeScan (DiscoverX)) EUB0000092b BRSK1; conditions: at 10 µM
T2 sequence (whole entry): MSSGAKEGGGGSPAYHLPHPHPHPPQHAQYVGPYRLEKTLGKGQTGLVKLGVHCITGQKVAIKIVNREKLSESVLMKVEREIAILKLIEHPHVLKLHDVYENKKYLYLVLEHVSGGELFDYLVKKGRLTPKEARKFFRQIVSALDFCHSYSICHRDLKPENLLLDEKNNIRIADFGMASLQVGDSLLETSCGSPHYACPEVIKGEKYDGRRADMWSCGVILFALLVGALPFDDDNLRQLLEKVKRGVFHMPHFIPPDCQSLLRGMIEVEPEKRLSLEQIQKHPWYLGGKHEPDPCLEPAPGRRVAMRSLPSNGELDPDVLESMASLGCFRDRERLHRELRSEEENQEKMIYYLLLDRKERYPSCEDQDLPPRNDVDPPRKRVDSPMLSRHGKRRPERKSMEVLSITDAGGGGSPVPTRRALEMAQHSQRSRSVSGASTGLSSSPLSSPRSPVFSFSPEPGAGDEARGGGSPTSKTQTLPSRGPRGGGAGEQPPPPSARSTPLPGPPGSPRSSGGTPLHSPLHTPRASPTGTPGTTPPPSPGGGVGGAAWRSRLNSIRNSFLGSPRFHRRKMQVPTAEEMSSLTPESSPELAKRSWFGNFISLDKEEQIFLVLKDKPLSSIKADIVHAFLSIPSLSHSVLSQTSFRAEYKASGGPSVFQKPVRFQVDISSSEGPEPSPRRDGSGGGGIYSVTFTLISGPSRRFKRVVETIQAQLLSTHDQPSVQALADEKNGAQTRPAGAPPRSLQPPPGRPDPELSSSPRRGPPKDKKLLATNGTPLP

[8] = molecular target: T3, Serine/threonine-protein kinase Sgk1 (Homo sapiens) (UniProt O00141); assay: Selectivity interaction (Kinase screening (Nanosyn)) EUB0000604a SGK1
T3 sequence (whole entry): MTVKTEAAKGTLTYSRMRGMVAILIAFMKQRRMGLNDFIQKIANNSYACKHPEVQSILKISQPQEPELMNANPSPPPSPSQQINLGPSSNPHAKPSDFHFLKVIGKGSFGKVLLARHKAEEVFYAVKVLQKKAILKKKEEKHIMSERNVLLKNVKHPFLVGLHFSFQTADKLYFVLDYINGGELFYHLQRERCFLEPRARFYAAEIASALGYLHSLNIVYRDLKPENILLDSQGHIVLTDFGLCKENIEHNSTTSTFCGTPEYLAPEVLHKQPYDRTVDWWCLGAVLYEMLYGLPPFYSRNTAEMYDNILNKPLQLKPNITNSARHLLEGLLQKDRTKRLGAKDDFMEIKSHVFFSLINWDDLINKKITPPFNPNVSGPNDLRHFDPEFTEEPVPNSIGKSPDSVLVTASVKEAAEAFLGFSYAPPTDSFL

[9] = molecular target: Wee1-like protein kinase 2 (Homo sapiens) (UniProt P0C1S8); assay: Selectivity interaction (KinomeScan (DiscoverX)) EUB0000618a WEE2; conditions: at 10 µM
Sequence of Wee1-like protein kinase 2 (Homo sapiens) (P0C1S8 whole entry, looked up): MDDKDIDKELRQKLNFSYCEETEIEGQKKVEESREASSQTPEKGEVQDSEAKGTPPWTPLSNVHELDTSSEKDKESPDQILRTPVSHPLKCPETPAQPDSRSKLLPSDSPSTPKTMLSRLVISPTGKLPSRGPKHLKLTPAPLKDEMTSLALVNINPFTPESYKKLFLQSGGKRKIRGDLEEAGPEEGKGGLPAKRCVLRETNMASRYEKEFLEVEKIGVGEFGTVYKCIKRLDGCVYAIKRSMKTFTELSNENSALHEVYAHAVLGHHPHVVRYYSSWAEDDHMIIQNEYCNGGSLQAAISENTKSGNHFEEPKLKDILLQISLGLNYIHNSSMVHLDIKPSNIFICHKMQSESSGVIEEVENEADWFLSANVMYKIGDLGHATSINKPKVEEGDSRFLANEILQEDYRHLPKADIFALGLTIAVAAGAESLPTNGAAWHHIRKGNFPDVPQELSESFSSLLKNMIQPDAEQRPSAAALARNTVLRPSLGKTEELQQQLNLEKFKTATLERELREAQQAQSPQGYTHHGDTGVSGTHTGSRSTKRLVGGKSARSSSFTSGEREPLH

[10] = molecular target: Mitogen-activated protein kinase kinase kinase kinase 1 (Homo sapiens) (UniProt Q92918); assay: Selectivity interaction (ActivX KiNativ screen (ex vivo kinase selectivity in human PBMCs)) EUB0001619a MAP4K1; type: cell-based; conditions: PBMC, at 1 µM
Sequence of Mitogen-activated protein kinase kinase kinase kinase 1 (Homo sapiens) (Q92918 whole entry, looked up): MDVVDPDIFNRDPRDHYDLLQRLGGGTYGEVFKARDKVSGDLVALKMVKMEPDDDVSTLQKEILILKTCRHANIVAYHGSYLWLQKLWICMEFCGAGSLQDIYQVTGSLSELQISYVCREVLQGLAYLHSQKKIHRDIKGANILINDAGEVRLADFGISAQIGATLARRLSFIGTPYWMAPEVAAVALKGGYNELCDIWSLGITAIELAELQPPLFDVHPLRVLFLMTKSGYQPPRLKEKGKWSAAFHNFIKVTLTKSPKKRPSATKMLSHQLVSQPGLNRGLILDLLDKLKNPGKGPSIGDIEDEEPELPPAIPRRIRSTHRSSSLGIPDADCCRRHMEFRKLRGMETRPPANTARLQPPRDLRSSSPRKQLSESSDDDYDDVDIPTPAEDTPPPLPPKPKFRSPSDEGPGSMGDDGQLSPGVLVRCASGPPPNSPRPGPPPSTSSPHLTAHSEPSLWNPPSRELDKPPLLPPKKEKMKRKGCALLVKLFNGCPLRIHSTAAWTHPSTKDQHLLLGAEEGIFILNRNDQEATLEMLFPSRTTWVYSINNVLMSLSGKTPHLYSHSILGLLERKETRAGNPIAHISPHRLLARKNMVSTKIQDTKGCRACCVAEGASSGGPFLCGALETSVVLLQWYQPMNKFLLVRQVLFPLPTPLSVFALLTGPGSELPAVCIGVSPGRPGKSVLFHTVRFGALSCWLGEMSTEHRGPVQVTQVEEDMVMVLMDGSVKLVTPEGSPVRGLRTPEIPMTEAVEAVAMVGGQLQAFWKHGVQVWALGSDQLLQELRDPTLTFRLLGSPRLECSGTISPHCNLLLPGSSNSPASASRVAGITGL

[11] = molecular target: cAMP-dependent protein kinase catalytic subunit beta (Homo sapiens) (UniProt P22694); assay: Selectivity interaction (KinomeScan (DiscoverX)) EUB0001619a PRKACB; conditions: at 1 µM
[12] = molecular target: Casein kinase I isoform gamma-3 (Homo sapiens) (UniProt Q9Y6M4); assay: Selectivity interaction (KinomeScan (DiscoverX)) EUB0001619a CSNK1G3; conditions: at 1 µM
Sequence of Casein kinase I isoform gamma-3 (Homo sapiens) (Q9Y6M4 whole entry, looked up, canonical isoform): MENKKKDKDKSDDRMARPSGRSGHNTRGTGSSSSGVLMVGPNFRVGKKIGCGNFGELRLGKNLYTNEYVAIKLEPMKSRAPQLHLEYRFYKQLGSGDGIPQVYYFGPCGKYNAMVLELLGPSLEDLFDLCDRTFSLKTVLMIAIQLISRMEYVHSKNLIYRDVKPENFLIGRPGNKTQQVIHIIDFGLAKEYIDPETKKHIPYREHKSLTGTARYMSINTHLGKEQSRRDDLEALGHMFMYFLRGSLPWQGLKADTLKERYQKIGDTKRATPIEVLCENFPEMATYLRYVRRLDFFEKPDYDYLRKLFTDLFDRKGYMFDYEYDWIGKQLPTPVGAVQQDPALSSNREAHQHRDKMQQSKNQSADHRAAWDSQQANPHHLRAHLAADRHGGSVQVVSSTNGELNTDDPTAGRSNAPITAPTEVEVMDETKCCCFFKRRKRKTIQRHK

Sequence of RAC-alpha serine/threonine-protein kinase (P31749 whole entry, canonical isoform): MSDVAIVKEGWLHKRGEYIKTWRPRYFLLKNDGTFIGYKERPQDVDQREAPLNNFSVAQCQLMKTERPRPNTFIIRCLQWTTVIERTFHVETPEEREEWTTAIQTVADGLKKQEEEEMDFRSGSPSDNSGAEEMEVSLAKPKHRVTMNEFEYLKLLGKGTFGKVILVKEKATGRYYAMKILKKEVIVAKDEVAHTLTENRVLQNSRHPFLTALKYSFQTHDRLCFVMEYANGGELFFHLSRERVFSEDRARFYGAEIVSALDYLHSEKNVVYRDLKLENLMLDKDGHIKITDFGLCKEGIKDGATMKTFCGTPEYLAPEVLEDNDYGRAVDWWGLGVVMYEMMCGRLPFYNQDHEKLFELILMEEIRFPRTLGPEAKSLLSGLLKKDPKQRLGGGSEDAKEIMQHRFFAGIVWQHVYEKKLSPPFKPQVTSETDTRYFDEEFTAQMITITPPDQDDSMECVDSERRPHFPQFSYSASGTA
Sequence of Mitogen-activated protein kinase kinase kinase 11 (Homo sapiens) (Q16584 whole entry, looked up): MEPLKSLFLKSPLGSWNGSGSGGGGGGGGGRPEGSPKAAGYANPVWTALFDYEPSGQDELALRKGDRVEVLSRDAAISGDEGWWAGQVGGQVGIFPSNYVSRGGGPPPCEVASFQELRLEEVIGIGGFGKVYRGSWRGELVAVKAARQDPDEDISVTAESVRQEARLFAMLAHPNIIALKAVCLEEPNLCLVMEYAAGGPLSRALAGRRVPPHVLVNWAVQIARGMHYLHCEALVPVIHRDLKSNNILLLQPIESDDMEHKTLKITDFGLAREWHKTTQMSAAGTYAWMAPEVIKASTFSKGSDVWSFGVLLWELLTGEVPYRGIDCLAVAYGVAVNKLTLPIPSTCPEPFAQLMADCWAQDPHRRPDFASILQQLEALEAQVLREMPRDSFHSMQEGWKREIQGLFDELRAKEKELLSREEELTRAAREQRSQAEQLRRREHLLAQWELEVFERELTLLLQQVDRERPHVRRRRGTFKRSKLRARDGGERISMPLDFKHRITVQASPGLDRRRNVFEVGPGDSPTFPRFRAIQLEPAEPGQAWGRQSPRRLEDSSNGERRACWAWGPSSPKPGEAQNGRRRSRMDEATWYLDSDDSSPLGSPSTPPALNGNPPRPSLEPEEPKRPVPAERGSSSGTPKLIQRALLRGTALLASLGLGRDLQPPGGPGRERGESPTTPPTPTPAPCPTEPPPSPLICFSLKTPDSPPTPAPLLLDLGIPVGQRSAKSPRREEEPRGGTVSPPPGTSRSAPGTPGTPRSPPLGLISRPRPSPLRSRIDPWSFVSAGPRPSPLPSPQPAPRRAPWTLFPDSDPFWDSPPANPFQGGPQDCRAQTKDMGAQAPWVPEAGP

Structure (SMILES): COc1cc(Nc2nc(C)cc(-c3cnn4nc(OC)ccc34)n2)cc(C(F)(F)F)c1
- % of control [1]: 79%

Structure (SMILES): CCN(CC)CCCCNc1ncc2cc(-c3cc(OC)cc(OC)c3)c(NC(=O)NC(C)(C)C)nc2n1
- % of control [2]: 100%
- % of control [3]: 100%

Structure (SMILES): CC[C@@H]1[C@H](F)C(=O)N[C@@H]1COc1nccc2cc(C(N)=O)c(OC)cc12 [ZIMLOVISERTIB]
- % of inhibition [4]: 9.1%
- % of inhibition ([5]; at 0.01 µM): 4.3%
- % of inhibition ([5]; at 0.04 µM): 27.3%
- % of inhibition ([5]; at 0.2 µM): 67%
- % of inhibition ([5]; at 1 µM): 91%
- % of inhibition ([5]; at 5 µM): 96.9%
- % of inhibition [6]: -18.4%

Structure (SMILES): CCC(=O)N1CCN(c2ccc(-n3c(=O)ccc4cnc5ccc(-c6cnc7ccccc7c6)cc5c43)cc2C(F)(F)F)CC1
- % of control [7]: 78%

Structure (SMILES): Cc1cnc(Nc2ccc(F)cc2Cl)nc1-c1c[nH]c(C(=O)N[C@H](CO)c2cccc(Cl)c2)c1
- % of inhibition [8]: 15%

Structure (SMILES): O[C@H]1CC[C@H](Nc2ncc3nc(Nc4c(F)cc(F)cc4F)n([C@H]4CCOC4)c3n2)CC1
- % of control [9]: 98%

Structure (SMILES): N#Cc1cccc(-c2c[nH]c3ncnc(N4CCOCC4)c23)c1
- % of inhibition [10]: 26%
- % of control [11]: 84%
- % of control [12]: 100%
